{
  "source": "patent US20250115583A1",
  "about": "“BICYCLIC INDAZOLE GLUCOCORTICOID RECEPTOR ANTAGONISTS” (Corcept Therapeutics Incorporated, priority 2021, published 2025)",
  "data": [
    {"target": "glucocorticoid receptor (Homo sapiens (Human), UniProt P04150)", "sequence (P04150 whole entry)": "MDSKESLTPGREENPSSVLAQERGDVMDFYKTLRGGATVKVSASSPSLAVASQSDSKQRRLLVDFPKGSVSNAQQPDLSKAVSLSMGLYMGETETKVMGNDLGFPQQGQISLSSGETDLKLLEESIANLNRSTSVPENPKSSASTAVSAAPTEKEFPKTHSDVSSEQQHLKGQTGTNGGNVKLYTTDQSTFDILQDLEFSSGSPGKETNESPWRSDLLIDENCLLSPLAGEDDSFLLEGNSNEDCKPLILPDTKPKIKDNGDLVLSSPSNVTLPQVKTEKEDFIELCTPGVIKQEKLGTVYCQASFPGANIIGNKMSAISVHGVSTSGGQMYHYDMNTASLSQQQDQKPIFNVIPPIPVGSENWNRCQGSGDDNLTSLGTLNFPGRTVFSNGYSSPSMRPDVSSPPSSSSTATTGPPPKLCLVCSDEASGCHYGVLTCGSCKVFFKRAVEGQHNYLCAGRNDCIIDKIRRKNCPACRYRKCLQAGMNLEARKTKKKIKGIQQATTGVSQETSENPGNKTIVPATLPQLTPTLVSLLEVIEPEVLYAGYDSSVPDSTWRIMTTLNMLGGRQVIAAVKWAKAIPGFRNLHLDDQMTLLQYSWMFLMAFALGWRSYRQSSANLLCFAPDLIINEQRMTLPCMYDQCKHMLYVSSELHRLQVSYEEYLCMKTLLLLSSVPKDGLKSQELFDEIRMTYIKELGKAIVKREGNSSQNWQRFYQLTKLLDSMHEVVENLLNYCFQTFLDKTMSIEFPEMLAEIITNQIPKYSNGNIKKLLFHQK", "test": "HepG2 TAT assay: inhibition of dexamethasone-induced tyrosine aminotransferase (TAT) activity", "format": "cell-based", "details": "HepG2 cells, challenge of 100 nM dexamethasone, 18-24 hr; IC50 converted to Ki by Cheng and Prusoff equation", "procedure": "Glucocorticoid mediated activation of TAT occurs by transactivation of glucocorticoid response elements in the TAT promoter by glucocorticoid receptor-agonist complex.\nHepG2 cells were cultured using MEME media supplemented with 10% (v/v) foetal bovine serum; 2 mM L-glutamine and 1% (v/v) NEAA at 37° C., 5%/95% (v/v) CO2/air.\nCompounds were serially half log diluted in 100% (v/v) dimethylsulphoxide from a 10 mM stock.\nHepG2 cells were then lysed with 30 μl of cell lysis buffer containing a protease inhibitor cocktail for 15 minutes at 4° C. […] After 2 hours incubation at 37° C. the reaction was terminated by the addition of 15 μl of 10M aqueous potassium hydroxide solution, and the plates incubated for a further 30 minutes at 37° C.\n[compound] and fitting the data to a 4 parameter logistic equation.", "units": {"Ki": "nM"}, "values": [
      {"molecule": "5-(6-((4,4-difluoropiperidin-1-yl)methyl)-3-((2-methyl-2H-1,2,3-triazol-4-yl)sulfonyl)-3-azabicyclo[3.1.0]hexan-1-yl)-1-(4-fluorophenyl)-6-methyl-1H-indazole [Example 181]", "Ki": 250},
      {"molecule": "CC(=O)NC[C@@H]1[C@H]2CN(S(=O)(=O)c3cnn(C)n3)C[C@@]12c1cc2cnn(-c3ccc(F)cc3)c2cc1C", "note": "(racemic) [Example 135, N-((1-(1-(4-fluorophenyl)-6-methyl-1H-indazol-5-yl)-3-((2-methyl-2H-1,2,3-triazol-4-yl)sulfonyl)-3-azabicyclo[3.1.0]hexan-6-yl)methyl)acetamide]", "Ki": 300},
      {"molecule": "CO[C@@]1(c2ccccc2)C[C@H]2CN(C(=O)c3ccccc3)C[C@@]2(c2cc3cnn(-c4ccc(F)cc4)c3cc2C)C1", "note": "(single isomer, unassigned) [Example 20, (3a-(1-(4-fluorophenyl)-6-methyl-1H-indazol-5-yl)-5-methoxy-5-phenylhexahydrocyclopenta[c]pyrrol-2(1H)-yl)(phenyl)methanone]", "Ki": 79},
      {"molecule": "Cc1cc2c(cnn2-c2ccc(F)cc2)cc1C12CN(S(=O)(=O)c3cnn(C)n3)CC1C2COc1ccc(Cl)cc1", "note": "(single isomer, unassigned) [Example 52, 5-(6-((4-chlorophenoxy)methyl)-3-((2-methyl-2H-1,2,3-triazol-4-yl)sulfonyl)-3-azabicyclo[3.1.0]hexan-1-yl)-1-(4-fluorophenyl)-6-methyl-1H-indazole]", "Ki": 380},
      {"molecule": "Cc1cc2c(cnn2-c2ccc(F)cc2)cc1C12CN(S(=O)(=O)c3cnn(C)n3)CC1C2COc1ccc(Cl)cc1", "note": "(single isomer, unassigned) [Example 53, 5-(6-((4-chlorophenoxy)methyl)-3-((2-methyl-2H-1,2,3-triazol-4-yl)sulfonyl)-3-azabicyclo[3.1.0]hexan-1-yl)-1-(4-fluorophenyl)-6-methyl-1H-indazole]", "Ki": 110},
      {"molecule": "CCCn1cc(S(=O)(=O)N2C[C@@H]3[C@@H](c4ccccc4)[C@]3(c3cc4cnn(-c5ccc(F)cc5)c4cc3C)C2)cn1", "note": "(single isomer, unassigned) [Example 69, 1-(4-fluorophenyl)-6-methyl-5-(6-phenyl-3-((1-propyl-1H-pyrazol-4-yl)sulfonyl)-3-azabicyclo[3.1.0]hexan-1-yl)-1H-indazole]", "Ki": 24},
      {"molecule": "Cc1cc2c(cnn2-c2ccc(F)cc2)cc1[C@@]12CN(S(=O)(=O)c3ccn(C)n3)C[C@@H]1[C@H]2c1ccccc1", "note": "(single isomer, unassigned) [Example 76]", "Ki": 9.4},
      {"molecule": "Cc1cc2c(cnn2-c2ccc(F)cc2)cc1[C@@]12CN(S(=O)(=O)N3CCCC3)C[C@@H]1[C@H]2c1ccccc1", "note": "(single isomer, unassigned) [Example 99]", "Ki": 28},
      {"molecule": "CC(=O)N1C[C@@H]2[C@@H](c3ccccc3)[C@]2(c2cc3cnn(-c4ccc(F)cc4)c3cc2C)C1", "note": "(single isomer, unassigned) [Example 111, 1-(1-(1-(4-fluorophenyl)-6-methyl-1H-indazol-5-yl)-6-phenyl-3-azabicyclo[3.1.0]hexan-3-yl)ethan-1-one]", "Ki": 52},
      {"molecule": "Cc1cc2c(cnn2-c2ccc(F)cc2)cc1[C@@]12CN(C(=O)c3cccnc3)C[C@@H]1[C@H]2c1ccccc1", "note": "(single isomer, unassigned) [Example 112, (1-(1-(4-fluorophenyl)-6-methyl-1H-indazol-5-yl)-6-phenyl-3-azabicyclo[3.1.0]hexan-3-yl)(pyridin-3-yl)methanone]", "Ki": 65},
      {"molecule": "Cc1cc2c(cnn2-c2ccc(F)cc2)cc1[C@@]12CN(C(=O)C(C)C)C[C@@H]1[C@H]2c1ccccc1", "note": "(single isomer, unassigned) [Example 113, 1-(1-(1-(4-fluorophenyl)-6-methyl-1H-indazol-5-yl)-6-phenyl-3-azabicyclo[3.1.0]hexan-3-yl)-2-methylpropan-1-one]", "Ki": 58},
      {"molecule": "COC(=O)N1C[C@@H]2[C@@H](c3ccccc3)[C@]2(c2cc3cnn(-c4ccc(F)cc4)c3cc2C)C1", "note": "(single isomer, unassigned) [Example 118, methyl 1-(1-(4-fluorophenyl)-6-methyl-1H-indazol-5-yl)-6-phenyl-3-azabicyclo[3.1.0]hexane-3-carboxylate]", "Ki": 40},
      {"molecule": "COCC(=O)N1C[C@@H]2[C@@H](c3ccccc3)[C@]2(c2cc3cnn(-c4ccc(F)cc4)c3cc2C)C1", "note": "(single isomer, unassigned) [Example 119, 1-(1-(1-(4-fluorophenyl)-6-methyl-1H-indazol-5-yl)-6-phenyl-3-azabicyclo[3.1.0]hexan-3-yl)-2-methoxyethan-1-one]", "Ki": 48},
      {"molecule": "CCOC(=O)N1C[C@@H]2[C@@H](c3ccccc3)[C@]2(c2cc3cnn(-c4ccc(F)cc4)c3cc2C)C1", "note": "(single isomer, unassigned) [Example 122, ethyl 1-(1-(4-fluorophenyl)-6-methyl-1H-indazol-5-yl)-6-phenyl-3-azabicyclo[3.1.0]hexane-3-carboxylate]", "Ki": 22},
      {"molecule": "COCCOC(=O)N1C[C@@H]2[C@@H](c3ccccc3)[C@]2(c2cc3cnn(-c4ccc(F)cc4)c3cc2C)C1", "note": "(single isomer, unassigned) [Example 123, 2-methoxyethyl 1-(1-(4-fluorophenyl)-6-methyl-1H-indazol-5-yl)-6-phenyl-3-azabicyclo[3.1.0]hexane-3-carboxylate]", "Ki": 27},
      {"molecule": "CNC(=O)N1C[C@@H]2[C@@H](c3ccccc3)[C@]2(c2cc3cnn(-c4ccc(F)cc4)c3cc2C)C1", "note": "(single isomer, unassigned) [Example 124, 1-(1-(4-fluorophenyl)-6-methyl-1H-indazol-5-yl)-N-methyl-6-phenyl-3-azabicyclo[3.1.0]hexane-3-carboxamide]", "Ki": 120},
      {"molecule": "Cc1cc2c(cnn2-c2ccc(F)cc2)cc1[C@@]12CN(C(=O)OC3CCOCC3)C[C@@H]1[C@H]2c1ccccc1", "note": "(single isomer, unassigned) [Example 125, tetrahydro-2H-pyran-4-yl 1-(1-(4-fluorophenyl)-6-methyl-1H-indazol-5-yl)-6-phenyl-3-azabicyclo[3.1.0]hexane-3-carboxylate]", "Ki": 29},
      {"molecule": "Cc1cc2c(cnn2-c2ccc(F)cc2)cc1[C@@]12CN(C(=O)N3CCCC3)C[C@@H]1[C@H]2c1ccccc1", "note": "(single isomer, unassigned) [Example 126, (1-(1-(4-fluorophenyl)-6-methyl-1H-indazol-5-yl)-6-phenyl-3-azabicyclo[3.1.0]hexan-3-yl)(pyrrolidin-1-yl)methanone]", "Ki": 34},
      {"molecule": "Cc1cc2c(cnn2-c2ccc(F)cc2)cc1[C@@]12CN(C(=O)c3cnn(C)n3)C[C@@H]1[C@H]2c1ccccc1", "note": "(single isomer, unassigned) [Example 127, (1-(1-(4-fluorophenyl)-6-methyl-1H-indazol-5-yl)-6-phenyl-3-azabicyclo[3.1.0]hexan-3-yl)(2-methyl-2H-1,2,3-triazol-4-yl)methanone]", "Ki": 19},
      {"molecule": "Cc1cc2c(cnn2-c2ccc(F)cc2)cc1[C@@]12CN(C(=O)c3ccccc3F)C[C@@H]1[C@H]2c1ccccc1", "note": "(single isomer, unassigned) [Example 128, (2-fluorophenyl)(1-(1-(4-fluorophenyl)-6-methyl-1H-indazol-5-yl)-6-phenyl-3-azabicyclo[3.1.0]hexan-3-yl)methanone]", "Ki": 5.9},
      {"molecule": "Cc1cc2c(cnn2-c2ccc(F)cc2)cc1[C@@]12CN(C(=O)c3cnn(C)c3)C[C@@H]1[C@H]2c1ccccc1", "note": "(single isomer, unassigned) [Example 129, (1-(1-(4-fluorophenyl)-6-methyl-1H-indazol-5-yl)-6-phenyl-3-azabicyclo[3.1.0]hexan-3-yl)(1-methyl-1H-pyrazol-4-yl)methanone]", "Ki": 37},
      {"molecule": "Cc1cc2c(cnn2-c2ccc(F)cc2)cc1[C@@]12CN(C(=O)c3ccccc3C#N)C[C@@H]1[C@H]2c1ccccc1", "note": "(single isomer, unassigned) [Example 130, 2-(1-(1-(4-fluorophenyl)-6-methyl-1H-indazol-5-yl)-6-phenyl-3-azabicyclo[3.1.0]hexane-3-carbonyl)benzonitrile]", "Ki": 5.7},
      {"molecule": "Cc1cc2c(cnn2-c2ccc(F)cc2)cc1[C@@]12CN(S(=O)(=O)C3COC3)C[C@@H]1[C@H]2c1ccccc1", "note": "(single isomer, unassigned) [Example 140, 5-(3-(oxetan-3-ylsulfonyl)-6-phenyl-3-azabicyclo[3.1.0]hexan-1-yl)-1-(4-fluorophenyl)-6-methyl-1H-indazole]", "Ki": 65},
      {"molecule": "COc1cccc(C(=O)N2C[C@@H]3[C@@H](c4ccccc4)[C@]3(c3cc4cnn(-c5ccc(F)cc5)c4cc3C)C2)c1", "note": "(single isomer, unassigned) [Example 141, (1-(1-(4-fluorophenyl)-6-methyl-1H-indazol-5-yl)-6-phenyl-3-azabicyclo[3.1.0]hexan-3-yl)(3-methoxyphenyl)methanone]", "Ki": 19},
      {"molecule": "Cc1ccnc(C(=O)N2C[C@@H]3[C@@H](c4ccccc4)[C@]3(c3cc4cnn(-c5ccc(F)cc5)c4cc3C)C2)c1", "note": "(single isomer, unassigned) [Example 146, (1-(1-(4-fluorophenyl)-6-methyl-1H-indazol-5-yl)-6-phenyl-3-azabicyclo[3.1.0]hexan-3-yl)(4-methylpyridin-2-yl)methanone]", "Ki": 14},
      {"molecule": "Cc1cc2c(cnn2-c2ccc(F)cc2)cc1[C@@]12CN(C(=O)c3ncccc3C(F)(F)F)C[C@@H]1[C@H]2c1ccccc1", "note": "(single isomer, unassigned) [Example 148, (1-(1-(4-fluorophenyl)-6-methyl-1H-indazol-5-yl)-6-phenyl-3-azabicyclo[3.1.0]hexan-3-yl)(3-(trifluoromethyl)pyridin-2-yl)methanone]", "Ki": 9.2}
    ]}
  ]
}
